Assay results from US12552769B2, “Pyrimidine derivative” (ASKA PHARMACEUTICAL CO., LTD., priority 2021, dated 2026).

Assays:
human mPGES-1 = target: T1, human mPGES-1 (Homo sapiens, UniProt O14684); experiment: Test for mPGES-1 inhibitory activity; format: biochemical; details: microsomes of COS-1 cells expressing human mPGES-1; PGH2 1 μM; 4° C.; PGE2 by EIA; read-out: IC50 value (mPGES-1 inhibition)
T1 construct: expressed in transfected cells; host or cells: COS-1 cells (microsomal fraction)
T1 sequence (O14684 1-152): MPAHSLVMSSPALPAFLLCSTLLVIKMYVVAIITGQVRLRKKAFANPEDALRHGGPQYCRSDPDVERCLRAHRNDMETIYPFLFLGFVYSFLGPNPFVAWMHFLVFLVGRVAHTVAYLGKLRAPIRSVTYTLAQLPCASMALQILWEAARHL
Description: Microsomes were prepared from COS-1 cells transiently transfected with a plasmid containing human mPGES-1 cDNA, and used as mPGES-1 enzyme. The mPGES-1 enzyme was diluted with a sodium phosphate buffer (pH 7.2) containing reduced glutathione (2.5 mM) and EDTA (1 mM), DMSO or a DMSO solution of a test compound (final concentration of DMSO was 1%) was added to the enzyme, and the mixture was preincubated at 4° C. for 15 minutes. Then, PGH2 as the substrate was added at a final concentration of 1 μM to start the enzymatic reaction, and after incubation at 4° C. for 4 minutes, a solution of ferric chloride (25 mM) and citric acid (50 mM) was added to terminate the enzymatic reaction. Generated PGE2 was measured by using Prostaglandin E2 Express EIA Kit (Cayman Chemical). IC50 values were determined by using a standard method.

[1] = Blood concentration (plasma pharmacokinetics after oral administration); format: in vivo; details: female, guinea pig, guinea pigs, oral 10 mg/kg, mean (n = 2)
Description: The compound of Example 1 and the compound disclosed in International Patent Publication WO2017/73709, Example 182 were weighed in an amount of 10 mg each for a dose of 10 mg/kg, and each compound was finely ground in an agate mortar for about 30 seconds. 0.5% Methyl cellulose 400 solution (Fujifilm Wako Pure Chemicals Co., Ltd.) was added small portionwise to each compound to form a suspension, finally the mortar was washed with a small volume of 0.5% MC400 solution, which was combined with the suspension, and the total volume of the suspension was made to be 10 mL with 0.5% MC400 solution. The suspension was sonicated for approximately 1 minute to prepare a 1 mg/mL solution for administration. The solution was administered to two female guinea pigs at a dose of 10 mL/kg using a flexible oral catheter (RZ-1, Nippon Clea), and blood was collected 0.5, 1, 2, 4, 6, 10, and 24 hours after the oral administration, and centrifuged to obtain plasma. Plasma concentrations of the compounds were measured by the LC-MS/MS (liquid chromatography-tandem mass spectrometry) method.

UGT [2] = experiment: Metabolic stability test (UGT), rat microsomes; format: in vitro ADME; details: Rat liver or small intestine microsomes 0.5 mg protein/mL, compound 1 μM, UDPGA 2 mM, 5 minutes at 37° C.
Description: (§1) DMSO was added to the compound of Example 1 to dissolve the compound, and then acetonitrile and water were added to prepare a test compound solution (10 μM). The test compound solution (final concentration 1 μM), a potassium phosphate buffer (pH 7.4) containing MgCl2 (9 mM) and alamethicin (25 μg/mL), and a rat or guinea pig liver or small intestine microsomal suspension were mixed (final concentration 0.5 mg protein/mL) under ice cooling. After 5 minutes of pre-incubation at 37° C. with stirring, a UDPGA solution (final concentration 2 mM) was added to initiate the reaction. After 5 minutes of incubation at 37° C. with stirring, 3-fold volume of acetonitrile was added, and the resulting mixture was stirred to terminate the enzymatic reaction. The reaction mixture was centrifuged (1500×g, 10 minutes, 4° C.), and the supernatant was mixed with an internal standard solution to prepare a measurement sample. The concentration of the compound in the sample was determined by LC-MS/MS. A sample in which the enzymatic reaction was not allowed was separately prepared, and the concentration measured for this sample was used as the initial value. For comparison, the compound of International Publication WO2017/73709, Example 182 was tested in the same manner.

UGT [3] = experiment: Metabolic stability test (UGT), guinea pig microsomes; format: in vitro ADME; details: Guinea pig liver or small intestine microsomes 0.5 mg protein/mL, compound 1 μM, UDPGA 2 mM, 5 minutes at 37° C.
Description: as §1

Solubility test = format: physicochemical; details: aqueous buffer, kinetic from dmso stock; JP2 solution (pH 6.8), 10 mM DMSO solution diluted 50-fold, incubation 16 to 24 hours
Description: A 10 mM solution of the compound of Example 1 in DMSO was prepared, and diluted 50-fold with JP2 solution (pH 6.8). After incubation for 16 to 24 hours, the test solution was filtered, and the concentration of the compound in the filtrate was determined by HPLC-UV or with a plate reader. For comparison, the compound of International Patent Publication WO2017/73709, Example 182 was tested in the same manner.

Question: With `CC(C)(F)C(=O)NCc1ccc(C(F)(F)F)c(-c2nc(-c3ccc(C(F)(F)F)cn3)cc(=O)[nH]2)c1F` [Example 1, 2-Fluoro-N-(2-fluoro-3-{6-oxo-4-[5-(trifluoromethyl)pyridin-2-yl]-1,6-dihydropyrimidin-2-yl}-4-(trifluoromethyl)benzyl)-2-methylpropanamide] as the compound, how does the IC50 (human mPGES-1) read?
Answer: 1.8 nM

Question: And the AUC(0-inf) [1]?
Answer: 62.1 µM·h

Question: What about the AUC(0-t) [1] of the same compound?
Answer: 42.4 µM·h

Question: And the Cmax [1]?
Answer: 5.63 µM

Question: What about the Tmax [1] of the same compound?
Answer: 1.5 h

Question: And the half-life [1]?
Answer: 13.3 h

Question: What about the MRT inf ([1]; read-out: MRT0-∞) of the same compound?
Answer: 18.3 h

Question: What about the UGT metabolic stability (UGT [2]) of the same compound?
Answer: 124 μL/min/mg protein

Question: What about the UGT metabolic stability (UGT [3]) of the same compound?
Answer: 130 μL/min/mg protein

Question: And the solubility (Solubility test)?
Answer: > 110 µg/mL
